Read-outs that look alike come from different tables or passages of the source.
What was measured:
Type in all cases: cell-based
TLR7 = molecular target: T1, TLR7 (Homo sapiens, UniProt Q9NYK1); test: Detection of TLR7 activation (HEK-Blue Detection), SEAP reporter; settings: for EC50: HEK-Blue hTLR7 cells, 6-16 hrs, absorbance 650 nm
T1 construct: host or cells: HEK-Blue hTLR7 cells (HEK293-derived SEAP reporter line)
T1 sequence (Q9NYK1 27-1049): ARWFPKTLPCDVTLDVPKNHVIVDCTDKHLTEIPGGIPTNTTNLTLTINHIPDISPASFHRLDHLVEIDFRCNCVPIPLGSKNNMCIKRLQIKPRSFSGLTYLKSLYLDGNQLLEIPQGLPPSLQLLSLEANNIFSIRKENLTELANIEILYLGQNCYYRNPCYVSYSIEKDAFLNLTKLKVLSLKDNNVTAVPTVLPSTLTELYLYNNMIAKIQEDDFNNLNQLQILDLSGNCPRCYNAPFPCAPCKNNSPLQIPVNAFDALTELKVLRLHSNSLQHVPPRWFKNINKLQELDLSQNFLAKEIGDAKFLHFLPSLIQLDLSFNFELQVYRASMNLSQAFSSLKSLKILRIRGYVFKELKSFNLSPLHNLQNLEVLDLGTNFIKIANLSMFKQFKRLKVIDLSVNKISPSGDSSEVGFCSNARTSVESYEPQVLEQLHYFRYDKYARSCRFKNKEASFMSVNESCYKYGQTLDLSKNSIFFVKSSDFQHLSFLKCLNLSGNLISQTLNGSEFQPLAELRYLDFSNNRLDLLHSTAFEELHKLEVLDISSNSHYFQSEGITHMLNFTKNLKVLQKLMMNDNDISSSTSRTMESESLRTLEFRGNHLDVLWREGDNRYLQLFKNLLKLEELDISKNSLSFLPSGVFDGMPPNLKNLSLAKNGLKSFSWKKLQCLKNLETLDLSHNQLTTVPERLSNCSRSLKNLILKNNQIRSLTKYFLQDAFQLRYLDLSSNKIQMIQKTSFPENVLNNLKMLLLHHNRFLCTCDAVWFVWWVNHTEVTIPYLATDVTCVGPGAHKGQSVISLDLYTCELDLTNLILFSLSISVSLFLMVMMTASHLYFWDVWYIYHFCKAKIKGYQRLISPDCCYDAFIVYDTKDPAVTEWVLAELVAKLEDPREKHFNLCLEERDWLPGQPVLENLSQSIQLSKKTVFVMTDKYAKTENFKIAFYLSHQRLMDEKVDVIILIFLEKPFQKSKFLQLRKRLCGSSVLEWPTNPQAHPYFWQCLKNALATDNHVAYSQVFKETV
Experimental: HEK-Blue™hTLR7 cells (purchased from InvivoGen) in a logarithmic growth phase were taken, with a growth medium (Gibco, C11995500BT, Invivo Gen, ant-nr) discarded. The cells were gently rinsed twice by an appropriate amount of 37° C. PBS (Hyclone, SH30256.01), a rinsed PBS was discarded. Thereafter, the cells were added with 2-5 mL of 37° C. PBS, incubated for 1 to 2 minutes, and then scraped by a cell scraper and gently pipetted to be dispersed into a single cell suspension. A hemocytometer was adopted to count the cells and a cell concentration was calculated. After that, a HEK-Blue™ Detection solution (purchased from Invivo Gen) was adopted to adjust the cell concentration of the cell suspension to 2.5×10^4/180 μL per well for cell plating on a 96-well cell culture plate. The HEK-Blue™hTLR7 cells were stimulated according to the designed series of GY compound or drug concentrations (0.01 μM, 0.1 μM, 1 μM, 5 μM, 15 μM, and 30 μM), with 3 replicate wells for each concentration, and were incubated at 37° C., 5% carbon dioxide for 6-16 hrs. After the incubation, the absorbance value was read at 650 nm with a full-wavelength microplate reader (BioTek-Epoch), as listed in Table 2.
Relative induction=(average OD value of experimental group−average OD value of negative control group)/average OD value of negative control group.
Specific details for the above method may be referred to https: • //www.invivogen.com/hek-blue-htlr7; https://www.invivogen.com/sites/default/files/invivogen/products/files/hek_blue_htlr7_tds.pdf.

[1] = test system: human lymphoma Daudi B cells; test: CCK8 growth inhibition, Daudi B; settings: CCK8 method; read-out: IC50 of inhibitory activity on tumor cell growth, Daudi B
[2] = test system: human lymphoma Raji cells; test: CCK8 growth inhibition, Raji; settings: CCK8 method, read-out: IC50 of inhibitory activity on tumor cell growth, Raji
[3] = test system: human leukemia HL-60 cells; test: CCK8 growth inhibition, HL60; settings: read-out: IC50 of inhibitory activity on tumor cell growth, HL60
[4] = test system: murine spleen lymphocytes; test: Cytokine stimulation of murine spleen lymphocytes, ELISA; settings: for EC50: Lymphocyte
Experimental: The stimulating effect of a series of GY compounds or drugs on murine spleen lymphocytes was detected by ELISA.
6-week-old Balb/c mice were sacrificed by cervical dislocation, spleens were taken under aseptic conditions. A 1 mL sterile syringe and a 200 mesh cell strainer were adopted to quickly grind and disperse the spleen into individual cells in 4 mL of a murine lymphocyte separation solution (Dakko's, 7211011). A resulting cell homogenate was transferred to a 15 mL centrifuge tube, then 1 mL of a RPMI 1640 medium (Hyclone, SH30809.01) was slowly added. Spleen lymphocytes were separated by a density gradient centrifugation method (800×g, 30 min), washed, red blood cells therein were lysed, such that a dispersed spleen lymphocyte suspension was obtained. Cells were counted by a hemocytometer, to calculate the cell concentration. A RPMI 1640 complete medium was adopted to adjust the cell suspension to a concentration of 1×10^6/ml/well, and the cells were then plated on a 24-well cell culture plate (Corning, 3524).
Murine spleen lymphocytes were stimulated according to the gradient concentrations of the series of GY compounds or drugs, and incubated in a 37° C., 5% carbon dioxide incubator for 24 hrs.
• (1) Coating: a Capture antibody (primary antibody, purchased from Invitrogen) was diluted with a 1×Coating Buffer (coating buffer, purchased from Invitrogen) to a recommended concentration, and 100 μL of a resulting diluted solution was added to each well of a 96-well microtiter plate, the plate was sealed with a sealing film at 4° C. overnight. • (2) Washing: a liquid in each well was discarded, then 300 μL of a PBST working solution was added to each well and kept for 1 min, thereafter, the liquid therein was discarded. The washing process was repeated 3 times. • (3) Blocking: 200 μL of a blocking solution was added to each well. The plate was sealed with a sealing film, and placed on a shaker and incubated at room temperature for 1 hr, then washed and patted to be dry. • (4) Sample incubation: a sample was collected and centrifuged to collect a supernatant. Standards, samples, negative controls, and blank controls were provided in the 96-well microtiter plate, and each concentration or sample were provided with 2 replicates. 100 μL of a standard or sample was added to each well, thereafter, the plate was sealed with a sealing film, incubated on a shaker at room temperature for 1 hr or overnight at 4° C., then washed and pated to be dry. • (5) Secondary antibody incubation: the detection antibody (secondary antibody, purchased from Invitrogen) was diluted to a recommended concentration with a dilution buffer, 100 μL of a secondary antibody was added to each well. After being sealed with a sealing film, the plate was incubated on a shaker at room temperature for 1 hr, then washed and patted to be dry. • (6) Avidin-HRP incubation: Avidin-HRP (horseradish peroxidase marker, purchased from Invitrogen) was diluted to the recommended concentration with a dilution buffer, 100 μL of Avidin-HRP was added to each well. After being sealed with a sealing film, the plate was placed on a shaker and incubated at room temperature for 30 mins, washed 5-7 times by the process of step 2), and patted to be dry. • (7) TMB color development: 100 μL of a TMB color development solution (purchased from Invitrogen) was added to each well, for carrying out reaction for 15 mins at room temperature in the dark. • (8) Stopping reaction: 50 μL of 1M H2SO4 solution was added to each well. • (9) Reading an absorbance value by a microplate reader: the OD value at 450 nm wavelength was read. A standard curve and a parameter nonlinear regression equation were drawn, and a sample concentration was calculated according to the obtained formula.

[5] = Homo sapiens, HL-60, CCK8 method
[6] = mouse immune cells (spleen lymphocytes), 24 hrs, ELISA, read-out: IFN-gamma EC50 of cytokine stimulating activity
[7] = mouse immune cells (spleen lymphocytes), 24 hrs, ELISA, read-out: IL-6 EC50 of cytokine stimulating activity
[8] = mouse immune cells (spleen lymphocytes), 24 hrs, ELISA, read-out: TNF-alpha EC50 of cytokine stimulating activity

| SMILES | EC50 (TLR7; read-out: TLR7(EC50/μM)) [µM] | EC50 [4, 6] [nM] | EC50 [4, 7] [nM] | EC50 [4, 8] [nM] | also measured |
| --- | --- | --- | --- | --- | --- |
| CCOCc1nc2c(N)nc3ccccc3c2n1CC(C)(C)O [Compound R848, Resiquimod, reference compound] |  | 56 | < 1 | < 1 |  |
| C#CCn1c(O)nc2c(N)nc(OCCCC)nc21 [GY100] | 2.25 | 104 | < 1 | < 1 | TLR7 agonist activity (in words) (TLR7): highly active TLR7 agonist |
| CCCCOc1nc(N)c2nc(O)n(Cc3cn(CCOCCOCCOCC(=O)O)nn3)c2n1 [GY101] | 0.003 | 122 | 1050 | 7 |  |
| CCCCOc1nc(N)c2nc(O)n(Cc3cn(CCOCCOCCOCCN)nn3)c2n1 [GY102] | 0.79 | 1070 | 637 | 1440 |  |
| CCCCOc1nc(N)c2nc(O)n(Cc3cn(CCCCCCCCCCCCP(=O)(O)O)nn3)c2n1 [GY103] | 0.86 | 3340 | 1510 | 2620 |  |
| CCCCOc1nc(N)c2nc(O)n(Cc3cn(CCOCCOCCOCCN=C=S)nn3)c2n1 [GY106] |  |  |  |  | EC50 (TLR7; TLR7(EC50/μM)): 0.08 µM; EC50 ([4]; Mus musculus, 24 h, read-out: IFN-gamma EC50 of cytokine stimulating activity): 2830 nM; EC50 ([4]; Mus musculus, 24 h, read-out: IL-6 EC50 of cytokine stimulating activity): < 1 nM; EC50 ([4]; Mus musculus, 24 h, read-out: TNF-alpha EC50 of cytokine stimulating activity): < 1 nM |
| C=C(CC(=O)NCCOCCOCCOCCn1cc(Cn2c(O)nc3c(N)nc(OCCCC)nc32)nn1)C(=O)O [GY109] | 0.65 | 983 | 653 | 153 |  |
| CCCCOc1nc(N)c2nc(O)n(Cc3cn(CCOCCOCCOCCNC(=O)CCC(=O)Nc4cccc5c4CN(C4CCC(=O)NC4=O)C5=O)nn3)c2n1 (stereo not shown) [GY110] | 3.17 |  |  |  |  |
| CCCCOc1nc(N)c2nc(O)n(Cc3cn(CCOCCOCCOCCNC(=O)c4cc(/N=N/c5ccc(S(=O)(=O)Nc6ccccn6)cc5)ccc4O)nn3)c2n1 [GY113] | 1.87 |  |  |  |  |

Further lines, with some results ahead:

| EC50 (TLR7; read-out: TLR7(EC50/μM)) [µM] | EC50 [4, 6] [nM] | EC50 [4, 7] [nM] | EC50 [4, 8] [nM] | SMILES | also measured |
| --- | --- | --- | --- | --- | --- |
| 1.99 |  |  |  | CCCCOc1nc(N)c2nc(O)n(Cc3cn(CCOCCOCCOCCNC(=S)N4CCC(C5CCNc6c(C(N)=O)c(-c7ccc(Oc8ccccc8)cc7)nn65)CC4)nn3)c2n1 (single isomer, unassigned) [GY134] | IC50 [1]: 6.99 µM; IC50 ([2]; Homo sapiens, Raji): 5.12 µM |
| 9.07 |  |  |  | CCCCOc1nc(N)c2nc(O)n(Cc3cn(CCOCCOCCOCCNC(=S)N4CCC(C5CCNc6c(C(N)=O)c(-c7ccc(Oc8ccccc8)cc7)nn65)CC4)nn3)c2n1 (single isomer, unassigned) [GY135] | IC50 [3, 5]: 13.1 µM; IC50 [1]: 14.6 µM; IC50 [2]: 7.6 µM |
| 2.92 |  |  |  | C=C(CC(=O)NCCOCCOCCOCCn1cc(Cn2c(O)nc3c(N)nc(OCCCC)nc32)nn1)C(=O)N1CCC(C2CCNc3c(C(N)=O)c(-c4ccc(Oc5ccccc5)cc4)nn32)CC1 (single isomer, unassigned) [GY137] | IC50 ([3]; CCK8 method): 27 µM; IC50 [1]: 24.6 µM; IC50 [2]: 37.2 µM |
| 1.98 |  |  |  | CCCCOc1nc(N)c2nc(O)n(Cc3cn(CCOCCOCCOCCNC(=O)c4cc5c(Oc6ccc(NC(=O)NC7CC7)c(Cl)c6)ccnc5cc4OC)nn3)c2n1 [GY114] |  |
| 0.22 |  |  |  | CCCCOc1nc(N)c2nc(O)n(Cc3cn(CCOCCOCCOc4c(OC)cc(/C=C/C(=O)N5CCC=CC5=O)cc4OC)nn3)c2n1 [GY117] | IC50 [3, 5]: 19 µM |
| 0.92 |  |  |  | CCCCOc1nc(N)c2nc(O)n(Cc3cn(CCOCCOCCOCCNC(=S)NC(CCC(=O)NC(CS)C(=O)NCC(=O)O)C(=O)O)nn3)c2n1 (stereo not shown) [GY126] |  |
| 0.29 |  |  |  | CCCCOc1nc(N)c2nc(O)n(Cc3cn(CCCCCCCCCCCCCCC(=O)O)nn3)c2n1 [GY145] |  |
|  | 7860 | 1100 | 58 | CCCCOc1nc(N)c2nc(O)n(Cc3cn(CCOCCOCCOCC(=O)NO)nn3)c2n1 [GY163] |  |
|  | 10 | 5930 | 1 | CCCCOc1nc(N)c2nc(O)n(Cc3cn(CCOCCOCCOCCNC(=S)NNCCc4ccccc4)nn3)c2n1 [GY164] |  |
|  |  | 8300 | 8350 | CC(C)Cn1cnc2c(N)nc3ccccc3c21 [Imiquimod, reference compound] | IFN-gamma EC50 of cytokine stimulating activity ([4]; mouse immune cells (spleen lymphocytes), 24 hrs, ELISA): No fit |

Source: patent publication US12440571B2, “Immune agonists” (SHENZHEN UNIVERSITY, priority 2020, dated 2025)
